Holding throughout (type): functional, cell-based
In assay [1] the target is T1, Bombesin receptor subtype-3 (Rattus norvegicus, UniProt Q8K418).
T1 sequence (Q8K418 whole entry): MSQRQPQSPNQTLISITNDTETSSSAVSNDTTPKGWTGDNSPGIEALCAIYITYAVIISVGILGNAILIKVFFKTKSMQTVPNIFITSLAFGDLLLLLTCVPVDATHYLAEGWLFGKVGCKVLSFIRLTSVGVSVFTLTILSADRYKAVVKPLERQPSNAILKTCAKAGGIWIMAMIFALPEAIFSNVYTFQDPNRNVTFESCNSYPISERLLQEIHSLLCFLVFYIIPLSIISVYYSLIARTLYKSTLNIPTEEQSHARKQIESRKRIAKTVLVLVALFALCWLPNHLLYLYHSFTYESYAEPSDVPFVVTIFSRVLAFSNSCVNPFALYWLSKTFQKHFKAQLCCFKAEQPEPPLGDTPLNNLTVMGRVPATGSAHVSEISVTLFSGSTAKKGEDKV
The assay can be described thus: Agonist activity at rat BRS3 expressed in HEK293AEQ cells after 10 mins by aequorin bioluminescence assay.

Assay [2] concerns the target T2, Bombesin receptor subtype-3 (Rattus norvegicus) (UniProt Q8K418).
T2 sequence (whole entry): T1 sequence (Q8K418 whole entry)
As to the kind of experiment: Agonist activity at rat BRS3 expressed in HEK293AEQ cells after 10 mins by aequorin bioluminescence assay relative to dY-peptide. The arrangement: concentration or dose not given beside the values.

Assay [3] has as its target T3, Bombesin receptor subtype-3 (Homo sapiens, UniProt P32247).
T3 sequence (P32247 whole entry): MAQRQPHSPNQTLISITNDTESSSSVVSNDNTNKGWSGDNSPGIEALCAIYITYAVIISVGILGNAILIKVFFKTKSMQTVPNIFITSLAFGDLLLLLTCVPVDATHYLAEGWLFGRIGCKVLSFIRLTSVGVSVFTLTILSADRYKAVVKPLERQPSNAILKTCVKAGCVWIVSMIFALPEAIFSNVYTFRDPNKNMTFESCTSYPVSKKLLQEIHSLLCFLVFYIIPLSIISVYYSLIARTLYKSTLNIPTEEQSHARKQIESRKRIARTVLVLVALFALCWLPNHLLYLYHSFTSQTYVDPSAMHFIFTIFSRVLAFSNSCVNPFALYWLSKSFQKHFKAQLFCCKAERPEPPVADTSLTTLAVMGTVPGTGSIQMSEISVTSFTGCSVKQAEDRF
The assay can be described thus: Agonist activity at human BRS3 expressed in HEK293AEQ cells after 10 mins by aequorin bioluminescence assay.

The target in assay [4] is T4, Bombesin receptor subtype-3 (Homo sapiens) (UniProt P32247).
T4 sequence (whole entry): T3 sequence (P32247 whole entry)
As to the kind of experiment: Agonist activity at human BRS3 expressed in HEK293AEQ cells after 10 mins by aequorin bioluminescence assay relative to dY-peptide.

Regarding `CC(C)(C)CNc1n[nH]c2nc(N3CCCCC3)c3c(c12)CCN(Cc1ccccc1)C3`, the EC50 in assay [1] came to 0.68 µM; in assay [3], 4.15 µM. Moreover, the Activity in assay [2] is 94%; in assay [4] it was 29%.

On to `Cn1nc(N)c2c3c(c(N4CCCCC4)nc21)CN(Cc1ccccc1)CC3`, for which the EC50 in assay [1] was found to be 6.06 µM; in assay [3] it was 10 µM. Further, the Activity came out at 73% in assay [2] and 7.6% in assay [4].

With `CCNc1n[nH]c2nc(N3CCCCC3)c3c(c12)CCN(Cc1ccccc1)C3`, the EC50 in assay [1] amounted to 0.471 µM; in assay [3] it was 10 µM. Also, the Activity in assay [2] is 105%; in assay [4], 53%.

Take `CC(C)(C)CC(=O)Nc1n[nH]c2nc(N3CCCCC3)c3c(c12)CCN(Cc1ccccc1)C3`: the figures for the EC50 in assay [1] and in assay [3] were 0.433 µM and 1.23 µM, respectively. Also, the Activity in assay [2] amounted to 93%; in assay [4], 52%.

Take `Nc1n[nH]c2nc(N3CCCCC3)c3c(c12)CCN(Cc1ccc2c(c1)OCO2)C3`: the EC50 amounted to 0.402 µM in assay [1] and 10 µM in assay [3]. The Activity in assay [2] came out at 94%; in assay [4] it was 1.6%.

Regarding `CC(C)Nc1nc2[nH]nc(N)c2c2c1CN(Cc1ccccc1)CC2`, the EC50 turned out to be 7.65 µM in assay [1] and 10 µM in assay [3]. In addition, the results for the Activity in assay [2] and in assay [4] were 55% and 1.8%, respectively.

Consider `CN1CCN(c2nc3[nH]nc(N)c3c3c2CN(Cc2ccccc2)CC3)CC1`, for which the EC50 in assay [1] and in assay [3] was 10 µM in each case. For the same compound, the Activity is 21% in assay [2] and 0.2% in assay [4].

Regarding `CC(=O)Nc1n[nH]c2nc(N3CCCCC3)c3c(c12)CCN(Cc1ccccc1)C3`, the EC50 worked out at 0.129 µM in assay [1] and 3.16 µM in assay [3]. The Activity turned out to be 94% in assay [2] and 31% in assay [4].

`Nc1n[nH]c2nc(N3CCCCC3)c3c(c12)CCN(CC1CCCCC1)C3`: the EC50 in assay [1] and in assay [3] was 10 µM each time. The Activity in assay [2] stood at 49%; in assay [4], 12%.

Consider `CC(C)C(=O)Nc1n[nH]c2nc(N3CCCCC3)c3c(c12)CCN(Cc1ccccc1)C3`, for which the concentration for a half-maximal effect (EC50) in assay [1] stood at 0.099 µM; in assay [3], 4.76 µM. Also, the Activity in assay [2] was determined as 102%; in assay [4], 37%.

For `CC1CCN(c2nc3[nH]nc(N)c3c3c2CN(Cc2ccccc2)CC3)CC1`, the EC50 in assay [1] was 0.854 µM; in assay [3] it was 10 µM. Also, the Activity stood at 96% in assay [2] and 6.8% in assay [4].

`CC(C)CN1CCc2c(c(N3CCCCC3)nc3[nH]nc(N)c23)C1`: the 50% effective concentration (EC50) in assay [1] and in assay [3] was 10 µM in each case. The Activity in assay [2] amounted to 61%; in assay [4] it was 10%.

`Nc1n[nH]c2nc(N3CCCCC3)c3c(c12)CCN(Cc1ccccn1)C3`: the EC50 in assay [1] turned out to be 0.346 µM; in assay [3], 6.78 µM. Moreover, the Activity in assay [2] is 94%; in assay [4] it was 46%.

Regarding `Nc1n[nH]c2nc(N3CCCCCC3)c3c(c12)CCN(Cc1ccccc1)C3`, the EC50 in assay [1] came to 1.44 µM; in assay [3], 10 µM. The figures for the Activity in assay [2] and in assay [4] were 100% and 9%, respectively.

On to `Nc1n[nH]c2nc(N3CCC(F)CC3)c3c(c12)CCN(Cc1ccccc1)C3`, for which the EC50 stood at 0.481 µM in assay [1] and 10 µM in assay [3]. In addition, the Activity in assay [2] came to 96%; in assay [4], 10%.

With `Nc1n[nH]c2nc(N3CCNCC3)c3c(c12)CCN(Cc1ccccc1)C3`, the EC50 in assay [1] and in assay [3] was 10 µM each time. Besides, the Activity was 31% in assay [2] and 0.1% in assay [4].

Take `Nc1n[nH]c2nc(N3CCCCC3)c3c(c12)CCN(C(=O)c1ccc(F)cc1)C3`: the EC50 in assay [1] and in assay [3] was greater than 10 µM throughout.

`CCC(C)(C)C(=O)Nc1n[nH]c2nc(N3CCCCC3)c3c(c12)CCN(Cc1ccccc1)C3`: the half-maximal effective concentration (EC50) in assay [1] came to 0.212 µM; in assay [3], 0.543 µM. Besides, the Activity in assay [2] is 96%; in assay [4], 78%.

Take `CCC(=O)Nc1n[nH]c2nc(N3CCCCC3)c3c(c12)CCN(Cc1ccccc1)C3`: the EC50 is 0.123 µM in assay [1] and 3.47 µM in assay [3]. The Activity is 103% in assay [2] and 19% in assay [4].

Consider `CC(C)(C)C(=O)Nc1n[nH]c2nc(N3CCCCC3)c3c(c12)CCN(Cc1ccccc1)C3`, for which the figures for the EC50 in assay [1] and in assay [3] were 0.063 µM and 1.54 µM, respectively. Further, the Activity was 105% in assay [2] and 37% in assay [4].

Turning to `Nc1n[nH]c2nc(NC3CCCCC3)c3c(c12)CCN(Cc1ccccc1)C3`, the EC50 in assay [1] and in assay [3] was 10 µM each time. Further, the Activity in assay [2] is 50%; in assay [4] it was 1%.

On to `CC(=O)n1nc(N)c2c3c(c(N4CCCCC4)nc21)CN(Cc1ccccc1)CC3`, for which the EC50 was 0.759 µM in assay [1] and 10 µM in assay [3]. Also, the Activity in assay [2] was 108%; in assay [4], 20%.

With `COc1ccc(CN2CCc3c(c(N4CCCCC4)nc4[nH]nc(N)c34)C2)cc1`, the EC50 in assay [1] and in assay [3] was 10 µM throughout. The Activity stood at 8% in assay [2] and 0.55% in assay [4].

In the case of `O=C(Nc1n[nH]c2nc(N3CCCCC3)c3c(c12)CCN(Cc1ccccc1)C3)C1CCCC1`, the values for the EC50 in assay [1] and in assay [3] were 0.413 µM and 0.704 µM, respectively. The results for the Activity in assay [2] and in assay [4] were 99% and 61%, respectively.

Regarding `Nc1n[nH]c2nc(N3CCOCC3)c3c(c12)CCN(Cc1ccccc1)C3`, the EC50 in assay [1] was found to be 3.56 µM; in assay [3], 10 µM. Besides, the Activity in assay [2] worked out at 82%; in assay [4], 1.3%.

For `Nc1n[nH]c2nc(N3CCCCCCC3)c3c(c12)CCN(Cc1ccccc1)C3`, the EC50 in assay [1] and in assay [3] was 10 µM throughout. In addition, the Activity is 51% in assay [2] and 3.7% in assay [4].

Consider `Nc1n[nH]c2nc(N3CCCCC3)c3c(c12)CCN(Cc1ccccc1Cl)C3`, for which the results for the EC50 in assay [1] and in assay [3] were 0.342 µM and 5.57 µM, respectively. The Activity was found to be 121% in assay [2] and 67% in assay [4].

Turning to `Nc1n[nH]c2nc(N3CCCCC3)c3c(c12)CCN(Cc1cccc(C(F)(F)F)c1)C3`, the EC50 in assay [1] and in assay [3] was 10 µM in each case. Besides, the Activity in assay [2] worked out at 38%; in assay [4] it was 0.3%.

`CN(C)c1nc2[nH]nc(N)c2c2c1CN(Cc1ccccc1)CC2`: the EC50 in assay [1] came to 8.95 µM; in assay [3], 10 µM. Also, the Activity in assay [2] was 59%; in assay [4], 0.9%.

Consider `Nc1n[nH]c2nc(N3CCCCC3)c3c(c12)CCN(Cc1ccc(F)cc1)C3`, for which the figures for the EC50 in assay [1] and in assay [3] were 3.86 µM and 10 µM, respectively. Besides, the Activity in assay [2] was 64%; in assay [4] it was 1.7%.

In the case of `Nc1n[nH]c2nc(N3CCCC3)c3c(c12)CCN(Cc1ccccc1)C3`, the EC50 in assay [1] was 0.965 µM; in assay [3], 10 µM. The figures for the Activity in assay [2] and in assay [4] were 99% and 12%, respectively.

Turning to `Nc1n[nH]c2nc(N3CCCCC3)c3c(c12)CCN(CCc1ccccc1)C3`, the EC50 in assay [1] is 7.91 µM; in assay [3], 10 µM. Moreover, the figures for the Activity in assay [2] and in assay [4] were 51% and 3.3%, respectively.

A word on the EC50: it is the concentration that produces a half-maximal response.

The values are drawn from ChEMBL document CHEMBL1157936, “Synthesis of 7-benzyl-5-(piperidin-1-yl)-6,7,8,9-tetrahydro-3H-pyrazolo[3,4-c][2,7]naphthyridin-1-ylamine and its analogs as bombesin receptor subtype-3 agonists” (Bioorg Med Chem Lett, 2010).
